Experimental data reported in patent US9999619B2, “Piperidin-4-yl azetidine derivatives as JAK1 inhibitors” (Incyte Corporation, priority 2010, dated 2018).
pIC50: −log10 of the molar value.

Assays:
Assay type in all cases: biochemical
[1] = biological target: human JAK1 (a.a. 837-1142) (Homo sapiens, UniProt P23458); experiment: In vitro JAK kinase assay (HTRF, phosphorylation of a biotinylated peptide), JAK1; conditions: measured at 1 mM ATP
Procedure, shortened: (§1)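 Phosphorylation of a biotinylated peptide by purified His-tagged JAK catalytic domains (insect-cell baculovirus expression) ran 1 hr at room temperature. After stopping with EDTA, Eu-Py20 and SA-APC were bound for 40 minutes and HTRF measured.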

[2] = biological target: human JAK1 (a.a. 837-1142); experiment: as above; conditions: ratio of JAK2 IC50 to JAK1 IC50, measured at 1 mM ATP
Procedure, shortened: as §1

Jak2 (a.a. 828-1132) = Jak2 (a.a. 828-1132) (Homo sapiens (Human), UniProt O60674); experiment: In vitro JAK kinase assay (HTRF, phosphorylation of a biotinylated peptide), JAK2; conditions: measured at 1 mM ATP
Procedure, shortened: as §1

Sequence of Jak2 (a.a. 828-1132) (O60674 828-1132): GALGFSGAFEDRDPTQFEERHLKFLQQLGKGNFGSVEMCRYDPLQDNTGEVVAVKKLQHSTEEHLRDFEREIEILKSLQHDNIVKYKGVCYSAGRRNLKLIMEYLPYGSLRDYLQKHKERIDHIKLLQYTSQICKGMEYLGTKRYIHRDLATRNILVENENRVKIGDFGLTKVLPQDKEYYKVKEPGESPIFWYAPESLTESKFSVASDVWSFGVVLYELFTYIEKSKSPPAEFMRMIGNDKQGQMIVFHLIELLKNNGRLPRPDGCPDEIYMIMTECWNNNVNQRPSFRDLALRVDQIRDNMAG

Row | Compound | pIC50 [1] | IC50 Ratio JAK2/JAK1 [2] | pIC50 (Jak2 (a.a. 828-1132))
1 | N#CCC1(n2cc(-c3ncnc4[nH]ccc34)cn2)CN(C2CCN(C(=O)c3ccc(-c4ccc(F)c(F)c4)c(F)c3)CC2)C1 [Example 127, (3-[4-(7H-pyrrolo[2,3-d]pyrimidin-4-yl)-1H-pyrazol-1-yl]-1-{1-[(2,3′,4′-trifluorobiphenyl-4-yl)carbonyl]piperidin-4-yl}azetidin-3-yl)acetonitrile] | 7.70 to 8.30 | 4.3 | 7.30 to 8.00
2 | N#CCC1(n2cc(-c3ncnc4[nH]ccc34)cn2)CN(C2CCN(C(=O)c3ccc(-c4ccc5cccnc5c4)c(F)c3)CC2)C1 [Example 134, {1-[1-(3-fluoro-4-quinolin-7-ylbenzoyl)piperidin-4-yl]-3-[4-(7H-pyrrolo[2,3-d]pyrimidin-4-yl)-1H-pyrazol-1-yl]azetidin-3-yl}acetonitrile] | ≥ 8.30 | 6.7 | 7.30 to 8.00
3 | N#CCC1(n2cc(-c3ncnc4[nH]ccc34)cn2)CN(C2CCN(C(=O)c3ccc(-c4ccc5nccn5c4)c(F)c3)CC2)C1 [Example 135, {1-[1-(3-fluoro-4-imidazo[1,2-a]pyridin-6-ylbenzoyl)piperidin-4-yl]-3-[4-(7H-pyrrolo[2,3-d]pyrimidin-4-yl)-1H-pyrazol-1-yl]azetidin-3-yl}acetonitrile] | ≥ 8.30 | 7.1 | 7.30 to 8.00
4 | N#CCC1(n2cc(-c3ncnc4[nH]ccc34)cn2)CN(C2CCN(C(=O)c3ccc(-c4nc5ccccc5o4)cc3)CC2)C1 [Example 136, {1-{1-[4-(1,3-benzoxazol-2-yl)benzoyl]piperidin-4-yl}-3-[4-(7H-pyrrolo[2,3-d]pyrimidin-4-yl)-1H-pyrazol-1-yl]azetidin-3-yl}acetonitrile] | 7.70 to 8.30 | 5.6 | < 7.00
5 | N#CCC1(n2cc(-c3ncnc4[nH]ccc34)cn2)CN(C2CCN(C(=O)c3ccc(-c4nc5ccccc5o4)c(F)c3)CC2)C1 [Example 137, {1-{1-[4-(1,3-benzoxazol-2-yl)-3-fluorobenzoyl]piperidin-4-yl}-3-[4-(7H-pyrrolo[2,3-d]pyrimidin-4-yl)-1H-pyrazol-1-yl]azetidin-3-y4}acetonitrile] | 7.52 to 7.70 | 6.0 | < 7.00
6 | N#CCC1(n2cc(-c3ncnc4[nH]ccc34)cn2)CN(C2CC3CCC(C2)N3C(=O)c2cc(F)cc(C#N)c2)C1 (stereo not drawn) [Example 138, 3-[(3-{3-(Cyanomethyl)-3-[4-(7H-pyrrolo[2,3-d]pyrimidin-4-yl)-1H-pyrazol-1-yl]azetidin-1-yl}-8-azabicyclo[3.2.1]oct-8-yl)carbonyl]-5-fluorobenzonitrile] | ≥ 8.30 | 13.9 | ≥ 8.00
7 | N#CCC1(n2cc(-c3ncnc4[nH]ccc34)cn2)CN(C2CC3CCC(C2)N3C(=O)c2ccc(F)c(F)c2)C1 (stereo not drawn) [Example 139, {1-[8-(3,4-difluorobenzoyl)-8-azabicyclo[3.2.1]oct-3-yl]-3-[4-(7H-pyrrolo[2,3-d]pyrimidin-4-yl)-1H-pyrazol-1-yl]azetidin-3-yl}acetonitrile] | ≥ 8.30 | 4.4 | ≥ 8.00
8 | N#CCC1(n2cc(-c3ncnc4[nH]ccc34)cn2)CN(C2CC3CCC(C2)N3C(=O)c2ccc(C#N)c(F)c2)C1 (stereo not drawn) [Example 140, 4-[(3-{3-(cyanomethyl)-3-[4-(7H-pyrrolo[2,3-d]pyrimidin-4-yl)-1H-pyrazol-1-yl]azetidin-1-yl}-8-azabicyclo[3.2.1]oct-8-yl)carbonyl]-2-fluorobenzonitrile] | 7.70 to 8.30 | 5.4 | 7.30 to 8.00
9 | N#CCC1(n2cc(-c3ncnc4[nH]ccc34)cn2)CN(C2CC3CCC(C2)N3C(=O)c2ccc(Cl)c(F)c2)C1 (stereo not drawn) [Example 141, {1-[8-(4-chloro-3-fluorobenzoyl)-8-azabicyclo[3.2.1]oct-3-yl]-3-[4-(7H-pyrrolo[2,3-d]pyrimidin-4-yl)-1H-pyrazol-1-yl]azetidin-3-yl}acetonitrile] | ≥ 8.30 | 6.2 | ≥ 8.00
10 | N#CCC1(n2cc(-c3ncnc4[nH]ccc34)cn2)CN(C2CC3CCC(C2)N3C(=O)c2ccnc(C(F)(F)F)c2F)C1 (stereo not drawn) [Example 142, {1-{8-[3-fluoro-2-(trifluoromethyl)isonicotinoyl]-8-azabicyclo[3.2.1]oct-3-yl}-3-[4-(7H-pyrrolo[2,3-d]pyrimidin-4-yl)-1H-pyrazol-1-yl]azetidin-3-yl}acetonitrile] | ≥ 8.30 | 7.4 | ≥ 8.00
11 | N#CCC1(n2cc(-c3ncnc4[nH]ccc34)cn2)CN(C2CC3CCC(C2)N3C(=O)c2ccc(C(F)(F)F)nc2)C1 (stereo not drawn) [Example 143, [3-[4-(7H-pyrrolo[2,3-d]pyrimidin-4-yl)-1H-pyrazol-1-yl]-1-(8-{[6-(trifluoromethyl)pyridin-3-yl]carbonyl}-8-azabicyclo[3.2.1]oct-3-yl)azetidin-3-yl]acetonitrile] | 7.70 to 8.30 | 3.5 | 7.30 to 8.00
12 | CC1CC(N2CC(CC#N)(n3cc(-c4ncnc5[nH]ccc45)cn3)C2)CCN1C(=O)C1CCC(F)(F)CC1 (stereo not drawn) [Example 151, {1-{1-[(4,4-difluorocyclohexyl)carbonyl]-2-methylpiperidin-4-yl}-3-[4-(7H-pyrrolo[2,3-d]pyrimidin-4-yl)-1H-pyrazol-1-yl]azetidin-3-yl}acetonitrile] | 7.70 to 8.30 | 5.8 | 7.00 to 7.30
13 | CC1(N2CC(CC#N)(n3cc(-c4ncnc5[nH]ccc45)cn3)C2)CCN(C(=O)c2cccc(F)c2)CC1 [Example 152, {1-[1-(3-Fluorobenzoyl)-4-methylpiperidin-4-yl]-3-[4-(7H-pyrrolo[2,3-d]pyrimidin-4-yl)-1H-pyrazol-1-yl]azetidin-3-yl}acetonitrile] | 7.70 to 8.30 | 4.0 | 7.30 to 8.00
14 | N#CCC1(n2cc(-c3ncnc4[nH]ccc34)cn2)CN(C2CCN(C(=O)Nc3c(F)cccc3F)CC2)C1 [Example 156, 4-{3-(cyanomethyl)-3-[4-(7H-pyrrolo[2,3-d]pyrimidin-4-yl)-1H-pyrazol-1-yl]azetidin-1-yl}-N-(2,6-difluorophenyl)piperidine-1-carboxamide] | ≥ 8.30 | 11.2 | 7.30 to 8.00

Other lines, results leading:

Row | pIC50 [1] | IC50 Ratio JAK2/JAK1 [2] | pIC50 (Jak2 (a.a. 828-1132)) | Compound
15 | ≥ 8.30 | 8.4 | ≥ 8.00 | N#CCC1(n2cc(-c3ncnc4[nH]ccc34)cn2)CN(C2CCN(C(=O)c3ccc(-c4ccccc4C#N)c(F)c3)CC2)C1 [Example 124, 4′-[(4-{3-(cyanomethyl)-3-[4-(7H-pyrrolo[2,3-d]pyrimidin-4-yl)-1H-pyrazol-1-yl]azetidin-1-yl}piperidin-1-yl)carbonyl]-2′-fluorobiphenyl-2-carbonitrile]
16 | ≥ 8.30 | 8.1 | 7.30 to 8.00 | N#CCC1(n2cc(-c3ncnc4[nH]ccc34)cn2)CN(C2CCN(C(=O)c3ccc(-c4cccc(C#N)c4)c(F)c3)CC2)C1 [Example 125, 4′-[(4-{3-(cyanomethyl)-3-[4-(7H-pyrrolo[2,3-d]pyrimidin-4-yl)-1H-pyrazol-1-yl]azetidin-1-yl}piperidin-1-yl)carbonyl]-2′-fluorobiphenyl-3-carbonitrile]
17 | ≥ 8.30 | 6.3 | 7.30 to 8.00 | N#CCC1(n2cc(-c3ncnc4[nH]ccc34)cn2)CN(C2CCN(C(=O)c3ccc(-c4ccc(C#N)cc4)cc3)CC2)C1 [Example 126, 4′-[(4-{3-(cyanomethyl)-3-[4-(7H-pyrrolo[2,3-d]pyrimidin-4-yl)-1H-pyrazol-1-yl]azetidin-1-yl}piperidin-1-yl)carbonyl]biphenyl-4-carbonitrile]
18 | ≥ 8.30 | 3.5 | 7.30 to 8.00 | N#CCC1(n2cc(-c3ncnc4[nH]ccc34)cn2)CN(C2CCN(C(=O)c3ccc(-c4cc(F)cc(C#N)c4)c(F)c3)CC2)C1 [Example 128, 4′-[(4-{3-(cyanomethyl)-3-[4-(7H-pyrrolo[2,3-d]pyrimidin-4-yl)-1H-pyrazol-1-yl]azetidin-1-yl}piperidin-1-yl)carbonyl]-2′,5-difluorobiphenyl-3-carbonitrile]
19 | ≥ 8.30 | 7.9 | ≥ 8.00 | N#CCC1(n2cc(-c3ncnc4[nH]ccc34)cn2)CN(C2CCN(C(=O)c3ccc(-c4cccc5ncccc45)c(F)c3)CC2)C1 [Example 129, {1-[1-(3-fluoro-4-quinolin-5-ylbenzoyl)piperidin-4-yl]-3-[4-(7H-pyrrolo[2,3-d]pyrimidin-4-yl)-1H-pyrazol-1-yl]azetidin-3-yl}acetonitrile]
20 | ≥ 8.30 | 7.1 | ≥ 8.00 | N#CCC1(n2cc(-c3ncnc4[nH]ccc34)cn2)CN(C2CCN(C(=O)c3ccc(-c4cccc5cnccc45)c(F)c3)CC2)C1 [Example 130, {1-[1-(3-fluoro-4-isoquinolin-5-ylbenzoyl)piperidin-4-yl]-3-[4-(7H-pyrrolo[2,3-d]pyrimidin-4-yl)-1H-pyrazol-1-yl]azetidin-3-yl}acetonitrile]
21 | ≥ 8.30 | 8.1 | 7.30 to 8.00 | N#CCC1(n2cc(-c3ncnc4[nH]ccc34)cn2)CN(C2CCN(C(=O)c3ccc(-c4cccc5ccncc45)c(F)c3)CC2)C1 [Example 131, {1-[1-(3-fluoro-4-isoquinolin-8-ylbenzoyl)piperidin-4-yl]-3-[4-(7H-pyrrolo[2,3-d]pyrimidin-4-yl)-1H-pyrazol-1-yl]azetidin-3-yl}acetonitrile]
22 | ≥ 8.30 | 7.9 | 7.30 to 8.00 | N#CCC1(n2cc(-c3ncnc4[nH]ccc34)cn2)CN(C2CCN(C(=O)c3ccc(-c4ccc5ccncc5c4)c(F)c3)CC2)C1 [Example 133, {1-[1-(3-fluoro-4-isoquinolin-7-ylbenzoyl)piperidin-4-yl]-3-[4-(7H-pyrrolo[2,3-d]pyrimidin-4-yl)-1H-pyrazol-1-yl]azetidin-3-yl}acetonitrile]
